In brackets after ≈: the same amount, converted by molar mass. Residues, ends and D or L forms follow the SMILES beside them.
Experiments:
[1] = tested on: Bacillus subtilis (ATCC 6633); assay: microbe, parasite or virus in culture; assay type: cell-based; details: Bacillus subtilis (ATCC 6633); averages of three repeats; read-out: Minimum inhibitory concentration (MIC)
Description: (§1) Antibacterial assay against various Gram-positive and Gram-negative strains of bacteria was performed by the serial two-fold dilution method according to the previously reported procedure, [36]. The antibacterial assays were repeated thrice and the averages of these MIC values were reported.

[2] = tested on: Escherichia coli (ATCC 25922); assay: microbe, parasite or virus in culture; assay type: cell-based; details: Escherichia coli (ATCC 25922); averages of three repeats; read-out: Minimum inhibitory concentration (MIC)
Description: as §1

[3] = tested on: Escherichia coli (ATCC 9637); assay: microbe, parasite or virus in culture; assay type: cell-based; details: Escherichia coli (ATCC 9637); averages of three repeats; read-out: Minimum inhibitory concentration (MIC)
Description: as §1

[4] = tested on: Klebsiella pneumoniae (ATCC 27736); assay: microbe, parasite or virus in culture; assay type: cell-based; details: Klebsiella pneumoniae (ATCC 27736); averages of three repeats; read-out: Minimum inhibitory concentration (MIC)
Description: as §1

[5] = tested on: Pseudomonas aeruginosa (ATCC BAA-427); assay: microbe, parasite or virus in culture; assay type: cell-based; details: Pseudomonas aeruginosa (ATCC BAA-427); averages of three repeats; read-out: Minimum inhibitory concentration (MIC)
Description: as §1

[6] = tested on: Staphylococcus aureus (ATCC 25923); assay: microbe, parasite or virus in culture; assay type: cell-based; details: Staphylococcus aureus (ATCC 25923); averages of three repeats; read-out: Minimum inhibitory concentration (MIC)
Description: as §1

[7] = tested on: Staphylococcus aureus (ATCC 29213); assay: microbe, parasite or virus in culture; assay type: cell-based; details: Staphylococcus aureus (ATCC 29213); averages of three repeats; read-out: Minimum inhibitory concentration (MIC)
Description: as §1

[8] = tested on: Staphylococcus aureus (ATCC 33592) Methicillin resistant Genatmicin resistant; assay: microbe, parasite or virus in culture; assay type: cell-based; details: Staphylococcus aureus (ATCC 33592), methicillin and gentamicin resistant; averages of three repeats; read-out: Minimum inhibitory concentration (MIC)
Description: as §1

[9] = tested on: Staphylococcus aureus (ATCC 700698 MRSA); assay: microbe, parasite or virus in culture; assay type: cell-based; details: Staphylococcus aureus (ATCC 700698 MRSA); averages of three repeats; read-out: Minimum inhibitory concentration (MIC)
Description: as §1

[10] = tested on: Staphylococcus aureus (ATCC 700699 MRSA); assay: microbe, parasite or virus in culture; assay type: cell-based; details: Staphylococcus aureus (ATCC 700699 MRSA); averages of three repeats; read-out: Minimum inhibitory concentration (MIC)
Description: as §1

[11] = tested on: Staphylococcus aureus (BAA-44)MDR; assay: microbe, parasite or virus in culture; assay type: cell-based; details: Staphylococcus aureus (BAA-44) MDR; averages of three repeats; read-out: Minimum inhibitory concentration (MIC)
Description: as §1

[12] = tested on: Candida albicans (ATCC 10231); assay: microbe, parasite or virus in culture; assay type: cell-based; details: Candida albicans (ATCC 10231); NCCLS micro broth dilution, 35 °C, 48 h, absorbance 492 nm; read-out: Minimum inhibitory concentration (MIC)
Description: (§2) The anti- fungal activity of peptides was performed according to the standard micro broth dilution technique as per NCCLS guidelines. These plates were incubated in a moist chamber at 35 °C, and an absorbance at 492 nm was recorded on a VersaMax microplate reader after 48 h for C. albicans ATCC 10231 and C. parapsilosis ATCC 22019 and 72 h for C. neoformans.

[13] = tested on: Candida parapsilosis (ATCC 22019); assay: microbe, parasite or virus in culture; assay type: cell-based; details: Candida parapsilosis (ATCC 22019); NCCLS micro broth dilution, 35 °C, 48 h, absorbance 492 nm; read-out: Minimum inhibitory concentration (MIC)
Description: as §2

Cryptococcus neoformans = assay: microbe, parasite or virus in culture; assay type: cell-based; details: Cryptococcus neoformans; NCCLS micro broth dilution, 35 °C, 72 h, absorbance 492 nm; read-out: Minimum inhibitory concentration (MIC)
Description: as §2

[14] = tested on: Sporothrix schenckii (Patient isolates); assay: microbe, parasite or virus in culture; assay type: cell-based; details: Sporothrix schenckii (patient isolates); NCCLS micro broth dilution, 35 °C; read-out: Minimum inhibitory concentration (MIC)
E. coli (ATCC 25922) = assay type: cell-based, Escherichia coli; details: E. coli (ATCC 25922)
Description: (§3) E. coli ATCC25922 was grown to 10^6 CFU/ml in fresh MH broth with various divalent and monovalent salts at their physiological concentrations. Serial dilutions of chrysophsin-1 and its variants prepared with the same MH broth were added to the E. coli ATCC 25922 suspensions. The bacteria were incubated at 37 °C in a shaking incubator for 18 h and the MIC values of individual peptides against E. coli ATCC 25922 were determined. Thermal tolerance of Chrysophsin-1 and its variants was checked by incubating the peptides at 4 °C, 60 °C and 90 °C for 1 h prior to MIC determination. The antibacterial activity in presence of serum was carried out by adding a final concentration of 10% fetal bovine serum in the assay diluents containing 0.4% BSA, 0.02% glacial acetic acid. The subsequent steps in both the experiments were consistent with the MIC determination method.

E. coli ATCC 25922 [15] = assay type: cell-based, Escherichia coli; details: E. coli ATCC 25922
Description: as §3

S. aureus (ATCC 25923) = assay type: cell-based, Staphylococcus aureus; details: S. aureus (ATCC 25923)
Description: as §3

E. coli ATCC 25922 [16] = assay: Synergy with conventional antibiotics, checkerboard titration; assay type: cell-based, Escherichia coli
Description: The checkerboard titration method was followed to check the synergy of peptides with other antibiotics. First, 2-fold serial dilutions of the antibiotics and antimicrobial peptides were prepared. Subsequently, 50 μl each of different concentrations of antibiotics and of antimicrobial peptides was mixed and added into 100 μl of log phase bacteria culture in a 96-well plate. The plates were then incubated at 37 °C for 24 h. The fractional inhibitory concentration (FIC) index (FICI) was calculated as follows[39]: FICI=(MICofdrugAincombination)/(MICofdrugAalone)+(MICofdrugBincombination)/(MICofdrugB): FICI < 0.5 is considered to indicate synergy; 0.5 < FICI < 1.0 is considered additive; 1.0 < FICI < 4.0 is considered indifferent; and FICI > 4.0 is considered antagonism.

[17] = peptide incubated 1 h at 4 °C prior to MIC determination
[18] = peptide incubated 1 h at 60 °C prior to MIC determination
[19] = peptide incubated 1 h at 90 °C prior to MIC determination

CC[C@H](C)[C@H](NC(=O)[C@H](C)NC(=O)[C@H](CCCCN)NC(=O)CNC(=O)[C@H](C)NC(=O)[C@H](Cc1c[nH]cn1)NC(=O)[C@@H](NC(=O)[C@H](C)NC(=O)CNC(=O)[C@H](CCCCN)NC(=O)[C@@H](NC(=O)[C@H](CC(C)C)NC(=O)[C@H](Cc1c[nH]c2ccccc12)NC(=O)CNC(=O)[C@H](Cc1ccccc1)NC(=O)[C@@H](N)Cc1ccccc1)[C@@H](C)CC)[C@@H](C)CC)C(=O)N[C@@H](Cc1c[nH]cn1)C(=O)NCC(=O)N[C@@H](CC(C)C)C(=O)N[C@H](C(=O)N[C@@H](Cc1c[nH]cn1)C(=O)N[C@@H](CCCNC(=N)N)C(=O)N[C@@H](CCCNC(=N)N)C(=O)N[C@@H](CCCNC(=N)N)C(=O)N[C@@H](Cc1c[nH]cn1)C(N)=O)[C@@H](C)CC [Chr-1, reference compound] (H-FFGWLIKGAIHAGKAIHGLIHRRRH-NH2; N-terminus assumed)
MIC [1]: 6 µM (≈ 17.3 µg/mL) | MIC [2]: 3 µM (≈ 8.67 µg/mL) | MIC [3]: 3.4 µM (≈ 9.83 µg/mL) | MIC [4]: 3 µM (≈ 8.67 µg/mL) | MIC [5]: 6.8 µM (≈ 19.7 µg/mL) | MIC [6]: 3 µM (≈ 8.67 µg/mL) | MIC [7]: 1.6 µM (≈ 4.63 µg/mL) | MIC [8]: 1.6 µM (≈ 4.63 µg/mL) | MIC [9]: 3 µM (≈ 8.67 µg/mL) | MIC [10]: 1.6 µM (≈ 4.63 µg/mL) | MIC [11]: 1.6 µM (≈ 4.63 µg/mL) | MIC [12]: 6.8 µM (≈ 19.7 µg/mL) | MIC [13]: 3 µM (≈ 8.67 µg/mL) | MIC (Cryptococcus neoformans): 3 µM (≈ 8.67 µg/mL) | MIC [14]: 13.6 µM (≈ 39.3 µg/mL) | Antibacterial activity (MIC) after incubating peptide at 4 °C (E. coli (ATCC 25922); [17]): 3 µM | Antibacterial activity (MIC) after incubating peptide at 60 °C (E. coli (ATCC 25922); [18]): 8.3 µM | Antibacterial activity (MIC) after incubating peptide at 90 °C (E. coli (ATCC 25922); [19]): 8.6 µM | Antibacterial activity (MIC) in the presence of 10% FBS (E. coli ATCC 25922 [15]; 10% fetal bovine serum in assay diluent with 0.4% BSA, 0.02% glacial acetic acid): 17.2 µM | Antibacterial activity (MIC) in the presence of FeCl3 (E. coli ATCC 25922 [15]; FeCl3 4 μM in MH broth, 37 °C, 18 h): 4.3 µM | Antibacterial activity (MIC) in the presence of KCl (E. coli ATCC 25922 [15]; KCl 4.5 mM in MH broth, 37 °C, 18 h): 4.3 µM | Antibacterial activity (MIC) in the presence of MgCl2 (E. coli ATCC 25922 [15]; MgCl2 1 mM in MH broth, 37 °C, 18 h): 8.6 µM | Antibacterial activity (MIC) in the presence of NH4Cl (E. coli ATCC 25922 [15]; NH4Cl 6 μM in MH broth, 37 °C, 18 h): 4.3 µM | Antibacterial activity (MIC) in the presence of NaCl (E. coli ATCC 25922 [15]; NaCl 150 mM in MH broth, 37 °C, 18 h): 8.3 µM | Antibacterial activity (MIC) in the presence of ZnCl2 (E. coli ATCC 25922 [15]; ZnCl2 8 μM in MH broth, 37 °C, 18 h): 4.3 µM | Antibacterial activity (MIC) after incubating peptide at 4 °C (S. aureus (ATCC 25923); [17]): 3 µM | Antibacterial activity (MIC) after incubating peptide at 60 °C (S. aureus (ATCC 25923); [18]): 12.6 µM | Antibacterial activity (MIC) after incubating peptide at 90 °C (S. aureus (ATCC 25923); [19]): 16.6 µM | interaction of peptide with chloramphenicol (by FICI) (E. coli ATCC 25922 [16]): synergy (FICI < 0.5 is considered to indicate synergy)
